Results as given in paper PMC7725785, “TRIB3 promotes MYC-associated lymphoma development through suppression of UBE3B-mediated MYC degradation” (Nature Communications, 2020).
Where a SMILES comes first, the peptide text is derived from it. The star is where a group is joined. Cbz = O=C(OCc1ccccc1)*

How the values were obtained:
[1] = target: T1, TRIB3 protein (Homo sapiens, UniProt Q96RU7); assay: SPR kinetic interaction of α-helical peptides (CM1-CM4) with TRIB3; type: binding; details: result in words
T1 construct: GST; purchased Sinobiological Inc. 10731-H09B
T1 sequence (Q96RU7 1-358): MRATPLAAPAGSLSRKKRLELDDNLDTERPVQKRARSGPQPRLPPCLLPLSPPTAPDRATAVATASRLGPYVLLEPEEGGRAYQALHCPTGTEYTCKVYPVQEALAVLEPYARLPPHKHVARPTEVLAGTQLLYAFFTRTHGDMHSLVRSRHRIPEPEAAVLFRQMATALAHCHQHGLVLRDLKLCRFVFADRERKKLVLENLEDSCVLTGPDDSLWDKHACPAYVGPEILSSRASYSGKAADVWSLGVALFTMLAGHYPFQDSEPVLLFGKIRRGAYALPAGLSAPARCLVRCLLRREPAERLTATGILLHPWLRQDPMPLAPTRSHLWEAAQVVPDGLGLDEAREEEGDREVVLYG
Procedure: (§1) Binding kinetics between MYC and UBE3B, TRIB3 and the indicated α helical peptides, MAX and the indicated α helical peptides, or MYC and MAX were analyzed using a BIAcore T200 instrument (GE Healthcare, CA, USA) as described previously. Briefly, binding reactions were performed in HBS-EP buffer (GE Healthcare) at pH 7.4. TRIB3/MYC/MAX protein was coated on the flow cell of a CM5 sensor chip by direct immobilization. Another flow cell, not coated with an immobilized protein, was used to evaluate nonspecific binding. The binding analyses were performed at a flow rate of 25 μl/min at 25 °C. A total of 0–200 nM peptide or 0–500 nM TRIB3 protein was passed over the surface of the sensor chip. The association rate constant (Ka) and the dissociation rate constant (Kd) were calculated according to the BIA evaluation software. The dissociation constant (KD) was determined by Kd/Ka.

[2] = test system: MAX protein; assay: SPR kinetic interaction of α-helical peptides (CM1-CM4) with MAX; type: binding; details: result in words
Procedure: as §1

[3] = test system: MAX and MYC; assay: SPR kinetic interaction of MAX and MYC proteins with indicated peptides (CM1-CM4); type: binding; details: result in words
Procedure: as §1

[4] = test system: MYC ubiquitination; assay: UBE3B-mediated MYC ubiquitination in HEK 293T cells with GSK3 inhibitor; type: cell-based; details: GSK3 inhibitor 10 µM for 12 hr, Co-IP, result in words
Procedure: HEK 293T cells were cotransfected with Myc-tagged MYC, HA-tagged or Flag-tagged ubiquitin, and other indicated plasmids. Cells were pretreated for 6 h with MG132 (Sigma Aldrich, C2211) at a concentration of 20 μM, and cell extracts were prepared using lysis buffer containing 1% TX-100 supplemented with 1 mg/ml iodoacetamide. We used a monoclonal anti-HA Affinity Gel (Bimake.com, B23302) or a ubiquitin antibody (CST, #3933S, 5 μg/IP) to purify ubiquitinylated proteins. Precipitates were analyzed by immunoblot with an anti-MYC antibody (CST, #9402 S, 1:1000).
Suppleme n t a ry F i g ur e 4 . U B E3 B I n d uc e d MYC Ubiquitina tion a t Lys ine 4 27 . Re la te d to Fig. 3 . […]
(d) The direct interaction of UBE3B and MYC in the purified system. […] HEK 293T cells were transfected with th e indicated mutants of MYC, and the ubiquitination of MYC was detected by Co -IP assays. […] HEK 293T cells were transfected with the indicated mutants of MYC, and the ubiquitination of MYC was detected by Co-IP assays. […] HEK 293T cells were transfected with the indicated mutants of MYC, and the degradation of MYC was detected by western blotting. […]
Raji cells were transfected with the indicated siRNAs and plasmids, and the ubiquitination of MYC was detected by Co-IP assays. […] Th e MY C protein was detected by Western blot analysis with GAPDH as a loading control. […] The MYC ubiquitination was detected by Co-IP assays . […]

[5] = test system: TRIB3 and MYC; assay: SPR kinetic interaction of TRIB3 and MYC proteins with or without CM4; type: binding; details: in vitro, result in words
Procedure: as §1

[6] = test system: Myc^EμCre^ERT2Trib3^F/+ mice; assay: Survival of Myc^EμCre^ERT2Trib3^F/+ mice treated with vehicle or tamoxifen (induced Trib3 deletion); type: in vivo, mouse
From the text: NOD-scid IL2Rg^null (NSG) mice (4–6 weeks old, male) were purchased from the Nanjing Biomedical Research Institute of Nanjing University (Nanjing, China). Trib3-knockout (Trib3^loxP/loxP, Trib3^F/F) mice (5–6 weeks old, male) were generated as described in our previous study (Li et al.[18]). Cre^ERT2 (B6. Cg-Tg(CAG-cre/Esr1*)5Amc/J) mice (5–6 weeks old, 1 male and 2 females) (The Jackson Laboratory, 004682) were obtained from The Jackson Laboratory (CA, USA). When Cre^ERT2 transgenic mice bred with mice containing loxP-flanked sequences, tamoxifen-inducible Cre-mediated recombination results in deletion of the floxed sequences in widespread cells/tissues of the offspring. Cre^Lck (B6. Cg-Tg(Lck-cre)548Jxm/J) mice (5–6 weeks old, 1 male and 2 females; The Jackson Laboratory, 003802), and Cre^CD19 (B6.129P2(C)-Cd19tm1(cre)Cgn/J) mice (5–6 weeks old, 1 male and 2 females; The Jackson Laboratory, 006785) were obtained from the Shanghai Research Center for Model Organisms (Shanghai, China). B6.129P2-Lyz2tm1(cre)/Nju (LysM-Cre) mice(5–6 weeks old, 1 male and 2 females; N000056) were obtained from Model Animal Resource Information Platform. […] Deletion of Trib3 was corroborated by quantitative PCR and immunoblot analysis. […]

[7] = test system: MYC protein in Raji cells; assay: MYC degradation in control or TRIB3-deleted Raji cells with CHX or CHX plus MG132; type: cell-based, human; details: result in words
Procedure: Co-IP experiments were performed as described previously. Briefly, cells were collected and lysed for 30 min on ice. Soluble lysates were incubated with the indicated antibodies at 4 °C overnight, followed by incubation with Protein A/G Plus-Agarose (Santa Cruz Biotechnology, TX, USA) at 4 °C for 2 h. Soluble lysates were incubated with the indicated Anti-Myc magnetic beads (Bimake.com, B26302), Anti-Flag Affinity Gel (Bimake.com, B23102) or Anti-HA Affinity Gel (Bimake.com, B23302) at 4 °C overnight. Immunocomplexes were separated from the beads and then boiled for 10 min. The precipitated proteins were subjected to SDS-PAGE and blotted with specific antibodies. For immunoblotting assays, proteins were extracted from cells, spleens, or lymphoma tissues using RIPA buffer (Cell Signaling Technology, MA, USA). A BCA Protein Assay Kit was used to determine protein concentrations. Protein extracts were separated by SDS-PAGE, transferred onto PVDF membranes, and subjected to immunoblot analysis. Western blot images were captured by a Tanon 5200 chemiluminescent imaging system (Tanon, Shanghai, […]). Human lymphoma and benign LN paraffin tissue microarrays were purchased from US Biomax (LM482a).

Compound | effect on the binding of MYC and MAX [3] | binding affinity for TRIB3 [1] | ability to bind MAX [2] | also measured
ERQRRNELKRSFFALR [CM1, α-helical peptide derived from C terminus (HLH domain) of MYC] | decreased the binding of MYC and MAX | only CM4 displayed a high binding affinity | showed a high ability to bind MAX | –
Cc1c[nH]c(-c2cnc(NCCNc3ccc(C#N)cn3)nc2-c2ccc(Cl)cc2Cl)n1 [CT99021] | – | – | – | UBE3B-mediated MYC ubiquitination [4]: decreased
LRKERQRLEKQLHK [scramble peptide of CM4, reference compound] | – | – | – | effect on the binding affinity of TRIB3 and MYC [5]: not
CC/C(=C(\c1ccccc1)c1ccc(OCCN(C)C)cc1)c1ccccc1 [Tamoxifen, tamoxifen] | – | – | – | survival of lymphoma mice ([6]; tamoxifen 250 mg/kg i.p. (induces Trib3 deletion), result in words): none of the tamoxifen-treated Myc^Eμ Cre^ERT2Trib3^F/+ mice died within 180 days; Survival status at day 180 (0: alive, 1: dead) ([6]; tamoxifen 250 mg/kg, status of individual mice at Day 180, Fig 1k source data): 0
CC(C)C[C@@H](C=O)NC(=O)[C@H](CC(C)C)NC(=O)[C@H](CC(C)C)NC(=O)OCc1ccccc1 [MG132] (Cbz-Leu-Leu-Leu-aldehyde) | – | – | – | effect on the shortened MYC half-life induced by TRIB3 knockdown [7]: reversed

Now from value to compound, other results behind:

effect on the binding of MYC and MAX [3] | Compound | binding affinity for TRIB3 [1] | ability to bind MAX [2] | also measured
not | KVVILKKATAYILSV [CM2, α-helical peptide derived from C terminus of MYC] | only CM4 displayed a high binding affinity | not | –
not | QAEEQKLISEEDLLR [CM3, α-helical peptide derived from C terminus of MYC] | only CM4 displayed a high binding affinity | not | –
